The values that follow come from patent US20190218207A1, “3-(Pyridin-3-yl)-Acrylamide and N-(Pyridin-3-yl)-Acrylamide Derivatives and Their Use as PAK or NAMPT Modulators” (Karyopharm Therapeutics Inc., priority 2015, published 2019).

One test concerns MS751 cells. Kind of test: MTT cell proliferation assay, MS751 cells. In kind it is cell-based, human. As to conditions: incubation approximately 64-72 hours, read-out: MTT Assay IC50, MS 751. The procedure: (§1) The MTT cell proliferation assay was used to study the cytotoxic properties of the compounds. The assay was performed according to the method described by Roche Molecular Biochemicals, with minor modifications. The assay is based on the cleavage of the tetrazolium salt, MTT, in the presence of an electron-coupling reagent. The water-insoluble formazan salt produced must be solubilized in an additional step. Cells grown in a 96-well tissue culture plate were incubated with the MTT solution for approximately 4 hours. After this incubation period, a water-insoluble formazan dye formed. After solubilization, the formazan dye was quantitated using a scanning multi-well spectrophotometer (ELISA reader). […] The cells were seeded at 5,000-10,000 cells in each well of 96-well plate in 100 μL of fresh culture medium and were allowed to attach overnight. The stock solutions of the compounds were diluted in […] cell culture medium to obtain eight concentrations of each test compound, ranging from 1 nM to 30 μM. […] All optical densities were measured at 490 nm using a Vmax Kinetic Microplate Reader (Molecular Devices). In most cases, the assay was performed in duplicate and the results were presented as a mean percent inhibition to the negative control±SE. The following formula was used to calculate the percent of inhibition: Inhibition (%)=(1-(ODo/OD))×100.
(§2) The compounds were tested against MS751, Z138 and 3T3 cells. The MS751 cell line is derived from a metastasis to lymph node of human cervix from a patient diagnosed with squameous cell carcinoma of the cervix. The Z138 cell line is a mature B-cell acute lymphoblastic leukemia cell line derived from a patient with chronic lumphocytic leukemia. 3T3 cells are standard fibroblast cells; they were originally isolated from Swiss mouse embryo tissue.

The subject of a further test is Z138 cells. Briefly: MTT cell proliferation assay, Z138 cells. In kind it is cell-based, human. Here is the method: as §1, §2
A general note: Tetrazolium assays rely on reduction of a dye to a coloured formazan, in cell work by metabolically active cells.

Another test deals with 3T3 cells. Kind of test: MTT cell proliferation assay, 3T3 cells. It counts as cell-based, mouse. The following applies: 3T3 fibroblast cells, incubation approximately 64-72 hours. Here is the method:
as §1, §2

Setting [1] is: Homo sapiens, Z-138, incubation approximately 64-72 hours.
Setting [2] is: incubation approximately 64-72 hours, read-out: MTT Assay IC50, Z-138.

Like-named read-outs stand apart in the source and are kept apart here.

For the compound `Nc1ccc(/C=C/C(=O)NCc2cnc(-c3ccc(-c4ccc(C(=O)N5CC(F)(F)C5)cc4)cc3C(F)(F)F)o2)cn1` [Compound A019, (E)-3-(6-aminopyridin-3-yl)-N-((2-(4′-(3,3-difluoroazetidine-1-carbonyl)-3-(trifluoromethyl)-[1,1′-biphenyl]-4-yl)oxazol-5-yl)methyl)acrylamide], the IC50 with MS751 cells (Homo sapiens) is less than 1000 nM; in the test on Z138 cells (setting [1]), less than 1000 nM; with 3T3 cells (Mus musculus, NIH3T3), 1 to 5 µM.

As to `Nc1ccc(/C=C/C(=O)NCc2cnc(-c3ccc(-c4ccc(C(=O)N5CC(F)C5)cc4F)cc3C(F)(F)F)o2)cn1` [Compound A020, (E)-3-(6-aminopyridin-3-yl)-N-((2-(2′-fluoro-4′-(3-fluoroazetidine-1-carbonyl)-3-(trifluoromethyl)-[1,1′-biphenyl]-4-yl)oxazol-5-yl)methyl)acrylamide], the IC50 in the test with MS751 cells (Homo sapiens) is less than 1000 nM; in the test with Z138 cells (setting [1]), less than 1000 nM; with 3T3 cells (Mus musculus, NIH3T3), 1 to 5 µM.

Take `Nc1ccc(/C=C/C(=O)NCc2cnc(-c3ccc(-c4ccc(C(=O)N5CC(F)C5)cc4)cc3C(F)(F)F)o2)cn1` [Compound A021, (E)-3-(6-aminopyridin-3-yl)-N-((2-(4′-(3-fluoroazetidine-1-carbonyl)-3-(trifluoromethyl)-[1,1′-biphenyl]-4-yl)oxazol-5-yl)methyl)acrylamide]: the IC50 in the test on MS751 cells (Homo sapiens) is less than 1000 nM; in the test on Z138 cells (setting [1]), less than 1000 nM; with 3T3 cells (Mus musculus, NIH3T3), 1 to 5 µM.

`Nc1ccc(/C=C/C(=O)NCc2cnc(-c3ccc(-c4ccc(C(=O)N5CC(F)(F)C5)cc4F)cc3C(F)(F)F)o2)cn1` [Compound A022, (E)-3-(6-aminopyridin-3-yl)-N-((2-(4′-(3,3-difluoroazetidine-1-carbonyl)-2′-fluoro-3-(trifluoromethyl)-[1,1′-biphenyl]-4-yl)oxazol-5-yl)methyl)acrylamide]: the IC50 with MS751 cells (Homo sapiens) was less than 1000 nM; in the test on Z138 cells (setting [1]), less than 1000 nM; in the test on 3T3 cells (Mus musculus, NIH3T3), less than 1 µM.

For `Cc1c(CNC(=O)/C=C/c2ccc(N)nc2)sc(-c2ccc(-c3ccc(C(=O)N4CCC(F)(F)CC4)cc3)cc2-c2ccc(F)cc2)c1C` [Compound A023, (E)-3-(6-aminopyridin-3-yl)-N-((5-(4-(4,4-difluoropiperidine-1-carbonyl)-4″-fluoro-[1,1′:3′,1″-terphenyl]-4′-yl)-3,4-dimethylthiophen-2-yl)methyl)acrylamide], the concentration for half-maximal inhibition (IC50) was 1000 to 5000 nM in the test on MS751 cells (Homo sapiens); less than 1000 nM in the test on Z138 cells (setting [1]); more than 10 µM in the test with 3T3 cells (Mus musculus, NIH3T3).

Consider `Nc1ccc(/C=C/C(=O)NCc2ncc(-c3ccc(-c4ccc(C(=O)N5CC(F)(F)C5)cc4)cc3C(F)(F)F)o2)cn1` [Compound A024, (E)-3-(6-aminopyridin-3-yl)-N-((5-(4′-(3,3-difluoroazetidine-1-carbonyl)-3-(trifluoromethyl)-[1,1′-biphenyl]-4-yl)oxazol-2-yl)methyl)acrylamide], for which the IC50 in the test with MS751 cells (Homo sapiens) was less than 1000 nM; with Z138 cells (setting [1]) it was less than 1000 nM; in the test with 3T3 cells (Mus musculus, NIH3T3), 1 to 5 µM.

As to `Nc1ccc(/C=C/C(=O)NCc2ccc(-c3c(C(F)(F)F)cc(-c4ccc(C(=O)N5CC(F)(F)C5)cn4)cc3C(F)(F)F)o2)cn1` [Compound A025, (E)-3-(6-aminopyridin-3-yl)-N-((5-(4-(5-(3,3-difluoroazetidine-1-carbonyl)pyridin-2-yl)-2,6-bis(trifluoromethyl)phenyl)furan-2-yl)methyl)acrylamide], the IC50 with MS751 cells (Homo sapiens) is less than 1000 nM; in the test on Z138 cells (setting [1]), less than 1000 nM; in the test with 3T3 cells (Mus musculus, NIH3T3), less than 1 µM.

Take `Nc1ccc(/C=C/C(=O)NCc2ccc(-c3cc4cc(C(=O)N5CCC(F)(F)CC5)cnc4cc3C(F)(F)F)o2)cn1` [Compound A026, (E)-3-(6-aminopyridin-3-yl)-N-((5-(3-(4,4-difluoropiperidine-1-carbonyl)-7-(trifluoromethyl)quinolin-6-yl)furan-2-yl)methyl)acrylamide]: the half-inhibitory concentration (IC50) in the test on MS751 cells (Homo sapiens) was less than 1000 nM; with Z138 cells (setting [1]) it was less than 1000 nM; in the test on 3T3 cells (Mus musculus, NIH3T3), 1 to 5 µM.

For `Cn1c(CNC(=O)/C=C/c2ccc(N)nc2)ccc1-c1ccc(-c2ccc(C(=O)N3CCC(F)(F)CC3)cc2)cc1-c1ccc(F)cc1` [Compound A-012, (E)-3-(6-aminopyridin-3-yl)-N-((5-(4-(4,4-difluoropiperidine-1-carbonyl)-4″-fluoro-[1,1′:3′,1″-terphenyl]-4′-yl)-1-methyl-1H-pyrrol-2-yl)methyl)acrylamide], the IC50 was more than 10000 nM with MS751 cells (Homo sapiens); more than 10000 nM in the test with Z138 cells (setting [1]); more than 10 µM in the test with 3T3 cells (Mus musculus, NIH3T3).

“(E)-3-(6-aminopyridin-3-yl)-N-((5-(1-chloro-6-(4,4-difluoropiperidine-1-carbonyl)naphthalen-2-yl)furan-2-yl)methyl)acrylamide [Compound A004]”: the IC50 was less than 1000 nM in the test with MS751 cells, less than 1000 nM in the test with Z138 cells (setting [2]) and more than 10 µM in the test on 3T3 cells.

Take “(E)-(4′-(2′-(2-(6-aminopyridin-3-yl)vinyl)-5,5′-bioxazol-2-yl)-3′-(trifluoromethyl)biphenyl-4-yl)(3,3-difluoroazetidin-1-yl)methanone [Compound A027]”: the IC50 with MS751 cells is more than 10000 nM; in the test on Z138 cells (setting [2]), more than 10000 nM; in the test on 3T3 cells it was more than 10 µM.

Broadly, the IC50 is the concentration that inhibits the measured activity by half.
